Results as given in patent US6737383B1, “Herbicidal oxadiazolidines” (priority 1999, dated 2004).

Legend:
rice = test: Test B flood test rice; type: in vivo, Oryza sativa
How it was run: (§1)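 Plants were grown to the 2-leaf stage before treatment with test chemical, then held in a greenhouse for twelve to sixteen days. Injury was visually rated against untreated controls on a 0–10 scale, where 0 is no effect and 10 is complete control.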

bamyardgrass = test: Test B flood test barnyardgrass; type: in vivo, Echinochloa crus-galli
How it was run: as §1

duck salad = test: Test B flood test duck salad; type: in vivo, Heteranthera limosa
How it was run: as §1

crabgrass = test: Test B pre/postemergence crabgrass; type: in vivo, Digitaria sanguinalis; settings: for Crabgrass plant response rating: scale of 0 to 10 where 0 is no effect and 10 is complete control
How it was run: (§2)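 Test chemicals in a non-phytotoxic solvent mixture with surfactant were sprayed preemergence onto planted seeds and postemergence onto plants 2 to 18 cm tall (1- to 4-leaf stage). After twelve to sixteen days in a greenhouse, injury was visually rated against untreated controls from 0 (no effect) to 10 (complete control).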

rape = test: Test B pre/postemergence rape; type: in vivo, Brassica napus; settings: for Rape plant response rating: scale of 0 to 10 where 0 is no effect and 10 is complete control
How it was run: as §2

pigweed = test: Test B pre/postemergence pigweed; type: in vivo, Amaranthus retroflexus; settings: for Redroot pigweed plant response rating: scale of 0 to 10 where 0 is no effect and 10 is complete control
How it was run: as §2

giant foxtail = test: Test B pre/postemergence giant foxtail; type: in vivo, Setaria faberii; settings: for Giant foxtail plant response rating: scale of 0 to 10 where 0 is no effect and 10 is complete control
How it was run: as §2

purple nutsedge = test: Test B pre/postemergence purple nutsedge; type: in vivo, Cyperus rotundus; settings: for Nutsedge plant response rating: scale of 0 to 10 where 0 is no effect and 10 is complete control
How it was run: as §2

morningglory = test: Test B pre/postemergence morningglory; type: in vivo, Ipomoea hederacea; settings: for Morningglory plant response rating: scale of 0 to 10 where 0 is no effect and 10 is complete control
How it was run: as §2

corn = test: Test B pre/postemergence corn; type: in vivo, Zea mays; settings: for Corn plant response rating: scale of 0 to 10 where 0 is no effect and 10 is complete control
How it was run: as §2

soybean = test: Test B pre/postemergence soybean; type: in vivo, Glycine max; settings: for Soybean plant response rating: scale of 0 to 10 where 0 is no effect and 10 is complete control
How it was run: as §2

surinam grass = test: Test B pre/postemergence surinam grass; type: in vivo, Brachiaria decumbens; settings: for B. signalgrass plant response rating: scale of 0 to 10 where 0 is no effect and 10 is complete control
How it was run: as §2

smallflower flatsedge = test: Test B flood test smallflower flatsedge; type: in vivo, Cyperus difformis
How it was run: as §1

sugar beet = test: Test B pre/postemergence sugar beet; type: in vivo, Beta vulgaris; settings: for Sugarbeets plant response rating: scale of 0 to 10 where 0 is no effect and 10 is complete control
How it was run: as §2

cocklebur = test: Test B pre/postemergence cocklebur; type: in vivo, Xanthium strumarium; settings: for Cocklebur plant response rating: scale of 0 to 10 where 0 is no effect and 10 is complete control
How it was run: as §2

wild oat = test: Test B pre/postemergence wild oat; type: in vivo, Avena fatua; settings: for Wild oats plant response rating: scale of 0 to 10 where 0 is no effect and 10 is complete control
How it was run: as §2

[1] = Rate 62 g/ha, flood test species, Pre-emergence, visual evaluation after twelve to sixteen days
[2] = Rate 125 g/ha, under heading Pre-emergence, flood test species, visual evaluation after twelve to sixteen days
[3] = Rate 250 g/ha, Pre-emergence, flood-test species, scale 0 to 10, 0 is no effect, 10 is complete control
[4] = Rate 500 g/ha, Pre-emergence, flood test species, scale 0 to 10 (0 no effect, 10 complete control)
[5] = Postemergence, Rate 125 g/ha, scale 0 to 10, 0 is no effect, 10 is complete control
[6] = Postemergence, Rate 250 g/ha, scale 0 to 10, 0 is no effect, 10 is complete control
[7] = Preemergence, Rate 62 g/ha, scale 0 to 10 (0 no effect, 10 complete control)
[8] = Rate 500 g/ha, Postemergence, scale 0 to 10, 0 no effect, 10 complete control

CC(C)N(C(=O)n1oc(=O)n(N2CCOCC2)c1=O)c1ccc(F)cc1 [Compound 385]
Plant response rating, Rice (0 to 10 scale, 0 is no effect, 10 is complete control) (rice; [1]): 0
Rice plant response rating (0 to 10 scale, 0 is no effect, 10 is complete control) (rice; [2]): 0
Rice plant response rating (rice; [3]): 0
Rice plant response rating (rice; [4]): 0
Plant response rating, Barnyardgrass (0 to 10 scale, 0 is no effect, 10 is complete control) (bamyardgrass; [1]): 0
Barnyardgrass plant response rating (0 to 10 scale, 0 is no effect, 10 is complete control) (bamyardgrass; [2]): 0
Barnyardgrass plant response rating (bamyardgrass; [3]): 0
Barnyardgrass plant response rating (bamyardgrass; [4]): 0
Plant response rating, Ducksalad (0 to 10 scale, 0 is no effect, 10 is complete control) (duck salad; [1]): 0
Ducksalad plant response rating (0 to 10 scale, 0 is no effect, 10 is complete control) (duck salad; [2]): 0
Ducksalad plant response rating (duck salad; [3]): 0
Ducksalad plant response rating (duck salad; [4]): 0
Plant response rating, Crabgrass (crabgrass; [5]): 7
Plant response rating, Crabgrass (crabgrass; [6]): 9
Plant response rating, Crabgrass (crabgrass; [7]): 3
Crabgrass plant response rating (0 to 10 scale) (crabgrass; Preemergence, Rate 125 g/ha): 9
Crabgrass plant response rating (crabgrass; Preemergence, Rate 250 g/ha): 9
Crabgrass plant response rating (crabgrass; Preemergence, Rate 500 g/ha): 10
Crabgrass plant response rating (crabgrass; Rate 62 g/ha, Postemergence): 6
Plant response rating, Crabgrass (crabgrass; [8]): 9
Plant response rating, Rape (rape; [5]): 0
Plant response rating, Rape (rape; [6]): 0
Plant response rating, Rape (rape; [7]): 0
Rape plant response rating (0 to 10 scale) (rape; Preemergence, Rate 125 g/ha): 0
Rape plant response rating (rape; Preemergence, Rate 250 g/ha): 0
Rape plant response rating (rape; Preemergence, Rate 500 g/ha): 4
Rape plant response rating (rape; Rate 62 g/ha, Postemergence): 0
Plant response rating, Rape (rape; [8]): 0
Plant response rating, Redroot pigweed (pigweed; [5]): 0
Plant response rating, Redroot pigweed (pigweed; [6]): 0
Plant response rating, Redroot pigweed (pigweed; [7]): 2
Redroot pigweed plant response rating (0 to 10 scale) (pigweed; Preemergence, Rate 125 g/ha): 7
Redroot pigweed plant response rating (pigweed; Preemergence, Rate 250 g/ha): 7
Redroot pigweed plant response rating (pigweed; Preemergence, Rate 500 g/ha): 10
Redroot pigweed plant response rating (pigweed; Rate 62 g/ha, Postemergence): 0
Plant response rating, Redroot pigweed (pigweed; [8]): 0
Plant response rating, Giant foxtail (giant foxtail; [5]): 9
Plant response rating, Giant foxtail (giant foxtail; [6]): 9
Plant response rating, Giant foxtail (giant foxtail; [7]): 3
Giant foxtail plant response rating (0 to 10 scale) (giant foxtail; Preemergence, Rate 125 g/ha): 10
Giant foxtail plant response rating (giant foxtail; Preemergence, Rate 250 g/ha): 10
Giant foxtail plant response rating (giant foxtail; Preemergence, Rate 500 g/ha): 10
Giant foxtail plant response rating (giant foxtail; Rate 62 g/ha, Postemergence): 7
Plant response rating, Giant foxtail (giant foxtail; [8]): 9
Plant response rating, Nutsedge (purple nutsedge; [5]): 0
Plant response rating, Nutsedge (purple nutsedge; [6]): 0
Plant response rating, Nutsedge (purple nutsedge; [7]): 0
Nutsedge plant response rating (0 to 10 scale) (purple nutsedge; Preemergence, Rate 125 g/ha): 0
Nutsedge plant response rating (purple nutsedge; Preemergence, Rate 250 g/ha): 0
Nutsedge plant response rating (purple nutsedge; Preemergence, Rate 500 g/ha): 0
Nutsedge plant response rating (purple nutsedge; Rate 62 g/ha, Postemergence): 0
Plant response rating, Nutsedge (purple nutsedge; [8]): 0
Plant response rating, Morningglory (morningglory; [5]): 1
Plant response rating, Morningglory (morningglory; [6]): 2
Plant response rating, Morningglory (morningglory; [7]): 0
Morningglory plant response rating (0 to 10 scale) (morningglory; Preemergence, Rate 125 g/ha): 0
Morningglory plant response rating (morningglory; Preemergence, Rate 250 g/ha): 0
Morningglory plant response rating (morningglory; Preemergence, Rate 500 g/ha): 2
Morningglory plant response rating (morningglory; Rate 62 g/ha, Postemergence): 1
Plant response rating, Morningglory (morningglory; [8]): 5
Plant response rating, Corn (corn; [5]): 0
Plant response rating, Corn (corn; [6]): 0
Plant response rating, Corn (corn; [7]): 0
Corn plant response rating (0 to 10 scale) (corn; Preemergence, Rate 125 g/ha): 0
Corn plant response rating (corn; Preemergence, Rate 250 g/ha): 0
Corn plant response rating (corn; Preemergence, Rate 500 g/ha): 0
Corn plant response rating (corn; Rate 62 g/ha, Postemergence): 0
Plant response rating, Corn (corn; [8]): 0
Plant response rating, Soybean (soybean; [5]): 2
Plant response rating, Soybean (soybean; [6]): 2
Plant response rating, Soybean (soybean; [7]): 0
Soybean plant response rating (0 to 10 scale) (soybean; Preemergence, Rate 125 g/ha): 0
Soybean plant response rating (soybean; Preemergence, Rate 250 g/ha): 0
Soybean plant response rating (soybean; Preemergence, Rate 500 g/ha): 0
Soybean plant response rating (soybean; Rate 62 g/ha, Postemergence): 2
Plant response rating, Soybean (soybean; [8]): 2
Plant response rating, B. signalgrass (surinam grass; [5]): 3
Plant response rating, B. signalgrass (surinam grass; [6]): 6
Plant response rating, B. signalgrass (surinam grass; [7]): 0
B. signalgrass plant response rating (0 to 10 scale, 0 is no effect, 10 is complete control) (surinam grass; Preemergence, Rate 125 g/ha): 0
B. signalgrass plant response rating (surinam grass; Preemergence, Rate 250 g/ha): 7
B. signalgrass plant response rating (surinam grass; Preemergence, Rate 500 g/ha): 9
B. signalgrass plant response rating (surinam grass; Rate 62 g/ha, Postemergence): 0
Plant response rating, B. signalgrass (surinam grass; [8]): 8
Plant response rating, S. Flatsedge (0 to 10 scale, 0 is no effect, 10 is complete control) (smallflower flatsedge; [1]): 0
S. Flatsedge plant response rating (0 to 10 scale, 0 is no effect, 10 is complete control) (smallflower flatsedge; [2]): 0
S. Flatsedge plant response rating (smallflower flatsedge; [3]): 0
S. Flatsedge plant response rating (smallflower flatsedge; [4]): 0
Plant response rating, Sugarbeets (sugar beet; [5]): 0
Plant response rating, Sugarbeets (sugar beet; [6]): 0
Plant response rating, Sugarbeets (sugar beet; [7]): 0
Sugarbeets plant response rating (0 to 10 scale) (sugar beet; Preemergence, Rate 125 g/ha): 1
Sugarbeets plant response rating (sugar beet; Preemergence, Rate 250 g/ha): 2
Sugarbeets plant response rating (sugar beet; Preemergence, Rate 500 g/ha): 7
Sugarbeets plant response rating (sugar beet; Rate 62 g/ha, Postemergence): 0
Plant response rating, Sugarbeets (sugar beet; [8]): 0
Plant response rating, Cocklebur (cocklebur; [5]): 0
Plant response rating, Cocklebur (cocklebur; [6]): 0
Plant response rating, Cocklebur (cocklebur; [7]): 0
Cocklebur plant response rating (0 to 10 scale) (cocklebur; Preemergence, Rate 125 g/ha): 0
Cocklebur plant response rating (cocklebur; Preemergence, Rate 250 g/ha): 0
Cocklebur plant response rating (cocklebur; Preemergence, Rate 500 g/ha): 0
Cocklebur plant response rating (cocklebur; Rate 62 g/ha, Postemergence): 0
Plant response rating, Cocklebur (cocklebur; [8]): 0
Plant response rating, Wild oats (wild oat; [5]): 0
Plant response rating, Wild oats (wild oat; [6]): 2
Plant response rating, Wild oats (wild oat; [7]): 0
Wild oats plant response rating (0 to 10 scale) (wild oat; Preemergence, Rate 125 g/ha): 2
Wild oats plant response rating (wild oat; Preemergence, Rate 250 g/ha): 7
Wild oats plant response rating (wild oat; Preemergence, Rate 500 g/ha): 10
Wild oats plant response rating (wild oat; Rate 62 g/ha, Postemergence): 0
Plant response rating, Wild oats (wild oat; [8]): 3
